Data from ChEMBL document CHEMBL3862040, “Identification, Synthesis, and Biological Evaluation of the Major Human Metabolite of NLRP3 Inflammasome Inhibitor MCC950” (ACS Med Chem Lett, 2016).

Key:
[1] = Drug metabolism in human liver microsomes assessed as R-(+)- N-((1-hydroxy-1,2,3,5,6,7-hexahydro-s-indacen-4-yl)carbamoyl)-4-(2-hydroxypropan-2-yl)furan-2-sulfonamide formation at 5 uM preincubated for 20 mins followed by NADPH addition measured after 120 mins by QTOF-ESI-MS/MS analysis; format: ADME; conditions: 2 h
[2] = Cytotoxicity against human HepG2 cells assessed as decrease in cell viability after 20 hrs by resazurin based fluorescence assay; format: toxicity
[3] = Drug metabolism in human liver microsomes assessed as N-((1-hydroxy-1,2,3,5,6,7-hexahydro-s-indacen-4-yl)carbamoyl)-4-(2-hydroxypropan-2-yl)furan-2-sulfonamide formation at 5 uM preincubated for 20 mins followed by NADPH addition measured after 120 mins by HPLC/ESI-SRM-MS/MS analysis; format: ADME; conditions: 2 h
[4] = Drug metabolism in human liver microsomes assessed as R-(+)- N-((1-hydroxy-1,2,3,5,6,7-hexahydro-s-indacen-4-yl)carbamoyl)-4-(2-hydroxypropan-2-yl)furan-2-sulfonamide formation at 5 uM preincubated for 20 mins followed by NADPH addition measured after 120 mins by HPLC/ESI-SRM-MS/MS analysis; format: ADME; conditions: 2 h
[5] = Cytotoxicity against human HEK293 cells assessed as decrease in cell viability after 20 hrs by resazurin based fluorescence assay; format: toxicity
[6] = Drug level in human liver microsomes treated with 5 uM MCC950 preincubated for 20 mins followed by NADPH addition measured after 120 mins by HPLC/ESI-SRM-MS/MS analysis; format: ADME; conditions: 2 h
[7] = molecular target: NACHT, LRR and PYD domains-containing protein 3 (Homo sapiens, UniProt Q96P20); test: Inhibition of NLRP3 inflammasome in LPS-stimulated human monocyte derived macrophages assessed as reduction in NLRP3 inflammasome-induced IL-1beta production preincubated for 30 mins followed by NLRP3 stimulation with ATP for 1 hr by ELISA
[8] = Drug level in human liver microsomes treated with 5 uM MCC950 preincubated for 20 mins followed by NADPH addition measured after 120 mins by QTOF-ESI-MS/MS analysis; format: ADME; conditions: 2 h

NACHT, LRR and PYD domains-containing protein 3, sequence (Q96P20 whole entry, the tested form may be a part): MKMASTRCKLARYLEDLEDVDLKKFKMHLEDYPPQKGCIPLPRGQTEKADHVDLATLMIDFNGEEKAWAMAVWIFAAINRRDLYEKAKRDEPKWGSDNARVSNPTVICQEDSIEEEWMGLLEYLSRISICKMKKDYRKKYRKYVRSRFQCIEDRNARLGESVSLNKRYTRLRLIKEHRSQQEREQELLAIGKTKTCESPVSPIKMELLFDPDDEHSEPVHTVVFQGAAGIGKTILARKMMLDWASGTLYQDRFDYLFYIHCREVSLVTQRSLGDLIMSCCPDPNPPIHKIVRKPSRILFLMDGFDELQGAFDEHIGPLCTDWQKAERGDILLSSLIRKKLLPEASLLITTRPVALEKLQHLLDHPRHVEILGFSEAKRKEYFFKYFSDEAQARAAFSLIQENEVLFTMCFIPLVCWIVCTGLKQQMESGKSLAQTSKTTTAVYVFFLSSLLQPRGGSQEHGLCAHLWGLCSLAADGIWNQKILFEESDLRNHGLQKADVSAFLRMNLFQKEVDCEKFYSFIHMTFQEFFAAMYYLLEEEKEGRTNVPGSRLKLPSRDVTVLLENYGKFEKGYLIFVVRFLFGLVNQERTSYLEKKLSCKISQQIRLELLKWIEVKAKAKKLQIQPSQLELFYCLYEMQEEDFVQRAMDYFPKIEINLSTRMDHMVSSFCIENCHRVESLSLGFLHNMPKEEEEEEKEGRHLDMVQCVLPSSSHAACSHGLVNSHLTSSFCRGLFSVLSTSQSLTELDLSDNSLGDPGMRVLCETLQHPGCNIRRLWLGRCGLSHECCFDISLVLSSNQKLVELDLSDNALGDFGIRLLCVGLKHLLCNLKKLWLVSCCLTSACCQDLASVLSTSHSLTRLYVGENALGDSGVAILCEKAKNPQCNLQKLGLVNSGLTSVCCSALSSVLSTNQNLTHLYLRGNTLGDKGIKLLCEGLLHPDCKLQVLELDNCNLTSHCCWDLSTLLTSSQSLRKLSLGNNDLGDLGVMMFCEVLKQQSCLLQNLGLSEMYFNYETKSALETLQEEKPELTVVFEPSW

Drug metabolism [3]	Drug metabolism [4]	Drug metabolism [6]	IC50 [7] [µM]	Compound	Drug metabolism [1]	CC50 at 20 h [2] [µM]	CC50 at 20 h [5] [µM]	Drug metabolism [8]
Metabolite_Detected	Metabolite_Detected	–	–	CC(C)(O)c1coc(S(=O)(=O)NC(=O)Nc2c3c(cc4c2CCC4)CCC3)c1	Metabolite_Detected	> 62.5	> 62.5	–
–	–	Metabolite_Detected	1.97	CC(C)(O)c1coc(S(=O)(=O)NC(=O)Nc2c3c(cc4c2CCC4O)CCC3)c1 (racemic)	–	> 62.5	> 62.5	–
–	–	–	0.232	CC(C)(O)c1coc(S(=O)(=O)NC(=O)Nc2c3c(cc4c2C(O)CC4)CCC3)c1 (racemic)	–	> 62.5	> 62.5	–
–	–	Metabolite_Detected	1.24	CC(C)(O)c1coc(S(=O)(=O)NC(=O)Nc2c3c(cc4c2CC[C@H]4O)CCC3)c1	–	–	–	Metabolite_Detected
–	–	–	1.83	CC(C)(O)c1coc(S(=O)(=O)NC(=O)Nc2c3c(cc4c2CC(O)C4)CCC3)c1 (centres undefined)	–	> 62.5	> 62.5	–
–	–	–	6.35	CC(C)(O)c1coc(S(=O)(=O)NC(=O)Nc2c3c(cc4c2CC[C@@H]4O)CCC3)c1	–	–	–	–
